In brackets after ≈: the same amount, converted by molar mass.
Columns and labels:
Format in all cases: cell-based
[1] = test system: Bacteroides thetaiotaomicron ATCC 29741; assay: in vitro antibacterial activity on anaerobic bacteria (MIC); details: ATCC29741; Bacteroides thetaiotaomicron ATCC 29741, anaerobic; read-out: Antimicrobial spectrum MIC
Description: (§1) The in vitro antibacterial activities of the compounds provided by the present invention were tested by a standard method of Chemotherapy Society of Japan, i.e. an agar plate dilution method disclosed in CHEMOTHERAPY Vol. 29, pages 76–79, 1981, and the activities of them on anaerobic bacteria were tested by a method disclosed in CHEMOTHERAPY Vol. 27, 559–590, 1979. The results were shown in terms of the minimum inhibition concentration (MIC, μg/ml) for the growth of the bacteria.

[2] = test system: Bacteroides fragilis GAI 0675; assay: as above; details: GAI0675; Bacteroides fragilis GAI 0675, anaerobic; read-out: Antimicrobial spectrum MIC
Description: as §1

[3] = test system: Propionibacterium acnes JCM 6425; assay: as above; details: Cutibacterium acnes, JCM6425; Propionibacterium acnes JCM 6425, anaerobic; read-out: Antimicrobial spectrum MIC
Description: as §1

[4] = test system: Staphylococcus aureus IID 803(Smith); assay: in vitro antibacterial activity, agar plate dilution method (MIC); details: IID803, read-out: Antimicrobial spectrum MIC
Description: as §1

[5] = test system: Branhamella catarrhalis IID 5233; assay: as above; details: Moraxella catarrhalis, IID5233, read-out: Antimicrobial spectrum MIC
Description: as §1

[6] = test system: Enterococcus faecalis CSJ 1212; assay: as above; details: CSJ1212, read-out: Antimicrobial spectrum MIC
Description: as §1

[7] = test system: Staphylococcus aureus IFO 13276; assay: as above; details: IFO13276, read-out: Antimicrobial spectrum MIC
Description: as §1

[8] = test system: Staphylococcus aureus Clin-211(MRSA); assay: as above; details: read-out: Antimicrobial spectrum MIC
Description: as §1

[9] = test system: Enterococcus faecalis RIMD 3116001; assay: as above; details: RIMD3116001, read-out: Antimicrobial spectrum MIC
Description: as §1

[10] = test system: Escherichia coli IFO 12734; assay: as above; details: IFO12734, read-out: Antimicrobial spectrum MIC
Description: as §1

[11] = test system: Staphylococcus aureus JCM 2874; assay: as above; details: JCM2874, read-out: Antimicrobial spectrum MIC
Description: as §1

[12] = test system: Micrococcus luteus KI 3122; assay: as above; details: KI3122, read-out: Antimicrobial spectrum MIC
Description: as §1

[13] = test system: Klebsiella pneumoniae IID 865; assay: as above; details: IID865, read-out: Antimicrobial spectrum MIC
Description: as §1

[14] = test system: Pseudomonas aeruginosa CSJ 1853; assay: as above; details: CSJ1853, read-out: Antimicrobial spectrum MIC
Description: as §1

[15] = test system: Haemophilus influenzae IID 984; assay: as above; details: IID984, read-out: Antimicrobial spectrum MIC
Description: as §1

[16] = test system: Streptococcus pneumoniae IID 553; assay: as above; details: IID553, read-out: Antimicrobial spectrum MIC
Description: as §1

[17] = test system: Staphylococcus epidermidis IFO 12993; assay: as above; details: IFO12993, read-out: Antimicrobial spectrum MIC
Description: as §1

[18] = test system: Bacillus subtilis JCM 2499; assay: as above; details: JCM2499, read-out: Antimicrobial spectrum MIC
Description: as §1

Compound	MIC [1] [µg/mL]	MIC [2] [µg/mL]	MIC [3] [µg/mL]	MIC [4] [µg/mL]	MIC [5] [µg/mL]	MIC [6] [µg/mL]	MIC [7] [µg/mL]	MIC [8] [µg/mL]	MIC [9] [µg/mL]	MIC [10] [µg/mL]	MIC [11] [µg/mL]	MIC [12] [µg/mL]	MIC [13] [µg/mL]	MIC [14] [µg/mL]	MIC [15] [µg/mL]	MIC [16] [µg/mL]	MIC [17] [µg/mL]	MIC [18] [µg/mL]
Cc1ccc(-c2ccn3c(=O)c(C(=O)O)cc(C4CC4)c3c2C)cc1 [Example 31, 1-Cyclopropyl-9-methyl-4-oxo-8-p-tolyl-4H-quinolizine-3-carboxylic acid]	1 (≈ 3 µM)	0.25 (≈ 0.75 µM)	0.25 (≈ 0.75 µM)	0.008 (≈ 0.024 µM)	0.031 (≈ 0.093 µM)	0.25 (≈ 0.75 µM)	0.008 (≈ 0.024 µM)	0.125 (≈ 0.375 µM)	0.5 (≈ 1.5 µM)	0.125 (≈ 0.375 µM)	0.008 (≈ 0.024 µM)	0.125 (≈ 0.375 µM)	0.031 (≈ 0.093 µM)	0.5 (≈ 1.5 µM)	0.125 (≈ 0.375 µM)	0.5 (≈ 1.5 µM)	0.016 (≈ 0.048 µM)	≤ 0.004
COc1ccc(-c2ccn3c(=O)c(C(=O)O)cc(C4CC4)c3c2C)cn1 [Example 32, 1-Cyclopropyl-8-(6-methoxypyridin-3-yl)-9-methyl-4-oxo-4H-quinolizine-3-carboxylic acid]	0.25 (≈ 0.714 µM)	0.063 (≈ 0.18 µM)	0.008 (≈ 0.0228 µM)	0.008 (≈ 0.0228 µM)	0.031 (≈ 0.0885 µM)	0.125 (≈ 0.357 µM)	0.008 (≈ 0.0228 µM)	0.125 (≈ 0.357 µM)	0.25 (≈ 0.714 µM)	0.25 (≈ 0.714 µM)	0.016 (≈ 0.0457 µM)	0.25 (≈ 0.714 µM)	0.016 (≈ 0.0457 µM)	1 (≈ 2.85 µM)	0.063 (≈ 0.18 µM)	0.5 (≈ 1.43 µM)	0.016 (≈ 0.0457 µM)	≤ 0.004
Cc1c(-c2ccc(C#N)cc2)ccn2c(=O)c(C(=O)O)cc(C3CC3)c12 [Example 36, 8-(4-Cyanophenyl)-1-cyclopropyl-9-methyl-4-oxo-4H-quinolizine-3-carboxylic acid]	0.5 (≈ 1.45 µM)	0.125 (≈ 0.363 µM)	0.063 (≈ 0.183 µM)	0.008 (≈ 0.0232 µM)	0.031 (≈ 0.09 µM)	0.25 (≈ 0.726 µM)	0.016 (≈ 0.0465 µM)	0.125 (≈ 0.363 µM)	0.25 (≈ 0.726 µM)	0.25 (≈ 0.726 µM)	0.016 (≈ 0.0465 µM)	0.125 (≈ 0.363 µM)	0.031 (≈ 0.09 µM)	0.5 (≈ 1.45 µM)	0.063 (≈ 0.183 µM)	0.5 (≈ 1.45 µM)	0.016 (≈ 0.0465 µM)	≤ 0.004
Cc1c(-c2ccc(NCCO)cc2)ccn2c(=O)c(C(=O)O)cc(C3CC3)c12 [Example 46, 1-cyclopropyl-8-[4-(2-hydroxyethylamino)phenyl]-9-methyl-4-oxo-4H-quinolizine-3-carboxylic acid]	0.25 (≈ 0.661 µM)	0.125 (≈ 0.33 µM)	0.016 (≈ 0.0423 µM)	≤ 0.004	0.016 (≈ 0.0423 µM)	0.063 (≈ 0.166 µM)	≤ 0.004	0.031 (≈ 0.0819 µM)	0.063 (≈ 0.166 µM)	0.125 (≈ 0.33 µM)	≤ 0.004	0.125 (≈ 0.33 µM)	0.063 (≈ 0.166 µM)	1 (≈ 2.64 µM)	0.031 (≈ 0.0819 µM)	0.125 (≈ 0.33 µM)	0.008 (≈ 0.0211 µM)	≤ 0.004
Cc1ccc(-c2ccn3c(=O)c(C(=O)O)cc(C4CC4)c3c2C)cc1N [Example 63, 8-(3-Amino-4-methylphenyl)-1-cyclopropyl-9-methyl-4-oxo-4H-quinolizine-3-carboxylic acid]	0.25 (≈ 0.718 µM)	0.063 (≈ 0.181 µM)	0.031 (≈ 0.089 µM)	0.008 (≈ 0.023 µM)	0.063 (≈ 0.181 µM)	0.5 (≈ 1.44 µM)	0.008 (≈ 0.023 µM)	0.063 (≈ 0.181 µM)	1 (≈ 2.87 µM)	0.125 (≈ 0.359 µM)	0.008 (≈ 0.023 µM)	0.125 (≈ 0.359 µM)	0.016 (≈ 0.0459 µM)	1 (≈ 2.87 µM)	0.125 (≈ 0.359 µM)	1 (≈ 2.87 µM)	0.016 (≈ 0.0459 µM)	≤ 0.004
Cc1c(-c2ccc(N)nc2)ccn2c(=O)c(C(=O)O)cc(C3CC3)c12 [Example 89, 8-(6-Aminopyridin-3-yl)-1-cyclopropyl-9-methyl-4-oxo-4H-quinolizine-3-carboxylic acid]	1 (≈ 2.98 µM)	0.5 (≈ 1.49 µM)	0.5 (≈ 1.49 µM)	0.063 (≈ 0.188 µM)	0.125 (≈ 0.373 µM)	0.25 (≈ 0.745 µM)	0.031 (≈ 0.0924 µM)	0.5 (≈ 1.49 µM)	0.5 (≈ 1.49 µM)	0.25 (≈ 0.745 µM)	0.063 (≈ 0.188 µM)	0.5 (≈ 1.49 µM)	0.016 (≈ 0.0477 µM)	1 (≈ 2.98 µM)	0.031 (≈ 0.0924 µM)	0.5 (≈ 1.49 µM)	0.125 (≈ 0.373 µM)	0.016 (≈ 0.0477 µM)
Cc1c(-c2cccc(CN(C)C)c2)ccn2c(=O)c(C(=O)O)cc(C3CC3)c12 [Example 117, 1-Cyclopropyl-8-(3-dimethylaminomethylphenyl)-9-methyl-4-oxo-4H-quinolizine-3-carboxylic acid]	1 (≈ 2.66 µM)	0.5 (≈ 1.33 µM)	0.5 (≈ 1.33 µM)	0.063 (≈ 0.167 µM)	0.125 (≈ 0.332 µM)	0.5 (≈ 1.33 µM)	0.063 (≈ 0.167 µM)	1 (≈ 2.66 µM)	1 (≈ 2.66 µM)	0.5 (≈ 1.33 µM)	0.125 (≈ 0.332 µM)	1 (≈ 2.66 µM)	0.031 (≈ 0.0823 µM)	1 (≈ 2.66 µM)	0.063 (≈ 0.167 µM)	0.5 (≈ 1.33 µM)	0.125 (≈ 0.332 µM)	0.031 (≈ 0.0823 µM)
Cc1c(-c2cccc(CN3CCNCC3)c2)ccn2c(=O)c(C(=O)O)cc(C3CC3)c12 [Example 119, 1-Cyclopropyl-9-methyl-4-oxo-8-(3-piperazin-1-ylmethylphenyl)-4H-quinolizine-3-carboxylic acid]	2 (≈ 4.79 µM)	1 (≈ 2.4 µM)	2 (≈ 4.79 µM)	0.063 (≈ 0.151 µM)	0.25 (≈ 0.599 µM)	0.5 (≈ 1.2 µM)	0.063 (≈ 0.151 µM)	1 (≈ 2.4 µM)	1 (≈ 2.4 µM)	1 (≈ 2.4 µM)	0.063 (≈ 0.151 µM)	1 (≈ 2.4 µM)	0.063 (≈ 0.151 µM)	4 (≈ 9.58 µM)	0.25 (≈ 0.599 µM)	0.5 (≈ 1.2 µM)	0.125 (≈ 0.299 µM)	0.016 (≈ 0.0383 µM)
